Where “and” joins values, the source holds several entries; their conditions need not be identical. Equal entries are not always repeated.

The record followed here is US9995734B2, “Human T cell line assay for evaluating the immunologic identity of glatiramer acetate preparations” (Mylan Inc., priority 2013, dated 2018).

Holding throughout (type): cell-based, human
One assay relates to Donor 3 COP T-Cell Lines. The assay is described as follows: ATP proliferation assay (CellTiter Glo), Donor 3 COP T-cell lines, incl. reactivity to non-canonical GA peptides. Particulars: for Non-Canonical Peptide Non-Reactivity: proliferation <2 times no antigen control. Background: Cellular ATP, detected with luciferase, serves as a proxy for viable cell number.
The subject of the next assay is Donor 3 GMA T-Cell Lines. The assay is described as follows: ATP proliferation assay (CellTiter Glo), Donor 3 GMA T-cell lines, incl. reactivity to non-canonical GA peptides. Particulars: Day 50 of culturing.
Another assay deals with Donor 1 COP T-Cell Lines. Description: Multiplex bead cytokine assay (FlowCytoMix), Donor 1 COP T-cell lines. Particulars: 222-2D8, 222-1H12, 222-2F12; Day 56; 48 hours; 1, 3, 10 μg/mL. Here is the method:
Culture medium was removed from cultures prepared as for proliferation assay and utilized to measure cytokine production. In most cases culture medium was collected 18-24 hours after mixing T-cells, APC, and stimulating antigen. Cytokine production was measured by ELISA or bead assay. For measuring cytokine production, 100-150 μL culture medium (100 μL if culture was to be continued, otherwise 150 μL) was removed from each well. In some cases, the culture was continued 48 hours, for a total of 72 hours of culture, and the proliferative response measured.
The concentration of multiple cytokines was measured simultaneously using FlowCytoMix™ kits (eBioscience, San Diego Calif.). These are fluorescent bead based assays consisting of beads conjugated to anti cytokine antibodies. Beads specific for each cytokine are distinguished by size and fluorescence at 670 run. Cytokine bound to each bead is detected using a phycoerythrin conjugated antibody so that the fluorescence at 585 nm reflects the concentration of cytokine in the sample. Two kits were utilized which measured different cytokine panels. The TH1/TH2 kit measures IFN-γ, IL-1β, IL-2, IL-4, IL-5, IL-6, IL-8, IL-10, IL-12p70, TNF-α (TNF) and TNF-β (LT). The TH1/TH2/TH9/TH17/TH22 kit measures […], IL-1β, IL-2, IL-4, IL-5, IL-6, IL-9, IL-10, IL-12p70, IL-13, IL-17, IL-22, and TNF-α (TNF). Both kits were used following the manufacturer's instructions.
IL-12p70, IFN-γ, IL-2, IL-10, IL-8, IL-6, IL-5, IL-4, IL-1β, TNF-α (TNF), and TNF-β (LT) secretion were measured in response to stimulation with 1, 3, or 10 μg/mL GMA, or 1, 3, or 10 μg/mL COP, as well as a no-antigen control and an MBP control, in the presence of autologous EBV-transformed B-LCL.

Another assay deals with Donor 4 COP T-Cell Lines. Description: ATP proliferation assay (CellTiter Glo), Donor 4 COP T-cell lines, incl. reactivity to non-canonical GA peptides. Particulars: for Non-Canonical Peptide Non-Reactivity: proliferation <2 times no antigen control; for Proliferation (luminescent ATP assay), Mean: T-cell line 205-1F4, Day 71, autologous B-LCL; for Reactivity (proliferation), Mean: T-cell line 205-1H3, 0 μg/mL 4121.0.

For the substance EKPKVEAYKAAAAPA [STERN], the “proliferation response to non-canonical peptides” value in the assay on Donor 3 COP T-Cell Lines (165-E3C, separate experiment) is reported as “did not react”. Moreover, the “Proliferation (luminescent ATP assay), Mean” value with Donor 3 GMA T-Cell Lines (T-cell line 165-05G, 1 μg/mL antigen, No Antigen Value 2149) worked out at 1750 RLU; in the assay with Donor 3 GMA T-Cell Lines (T-cell line 165-05G, 3 μg/mL antigen, No Antigen Value 2149), 1606 RLU; with Donor 3 GMA T-Cell Lines (T-cell line 165-05G, 10 μg/mL antigen, No Antigen Value 2149), 1650 RLU; with Donor 3 GMA T-Cell Lines (T-cell line 165-05G, 30 μg/mL antigen, No Antigen Value 2149) it was 1572 RLU; in the assay with Donor 3 GMA T-Cell Lines (T-cell line 165-E9G, 1 μg/mL antigen, No Antigen Value 1742), 1673 RLU; in the assay with Donor 3 GMA T-Cell Lines (T-cell line 165-E9G, 3 μg/mL antigen, No Antigen Value 1742), 1480 RLU. For the same substance, the “Proliferation (luminescent ATP assay), Mean” value with Donor 3 GMA T-Cell Lines (T-cell line 165-E9G, 30 μg/mL antigen, No Antigen Value 1742) is on record as 1487 RLU; in the assay with Donor 3 GMA T-Cell Lines (T-cell line 165-E9G, 10 μpg/mL antigen, No Antigen Value 1742), 1471 RLU; in the assay with Donor 3 GMA T-Cell Lines (T-cell line 165-F10G, 1 μg/mL antigen, No Antigen Value 3752), 2465 RLU; with Donor 3 GMA T-Cell Lines (T-cell line 165-F10G, 3 μg/mL antigen, No Antigen Value 3752), 2389 RLU; in the assay on Donor 3 GMA T-Cell Lines (T-cell line 165-F10G, 10 μg/mL antigen, No Antigen Value 3752), 2030 RLU; in the assay on Donor 3 GMA T-Cell Lines (T-cell line 165-F10G, 30 μg/mL antigen, No Antigen Value 3752), 2583 RLU. The “Proliferation (luminescent ATP assay), Mean” value with Donor 3 GMA T-Cell Lines (T-cell line 165-H11G, 1 μg/mL antigen, No Antigen Value 1485) was found to be 2279 RLU; with Donor 3 GMA T-Cell Lines (T-cell line 165-H11G, 3 μg/mL antigen, No Antigen Value 1485) it was 2118 RLU; in the assay on Donor 3 GMA T-Cell Lines (T-cell line 165-H11G, 10 μg/mL antigen, No Antigen Value 1485), 2418 RLU; in the assay on Donor 3 GMA T-Cell Lines (T-cell line 165-H11G, 30 μg/mL antigen, No Antigen Value 1485), 2296 RLU.
On to “L-glutamic acid polymer with L-alanine, L-lysine and L-tyrosine, acetate (salt) [GA]”, for which the “cytokine secretion, dose comparison” value with Donor 1 COP T-Cell Lines was “highest levels of cytokines”.
Take poly (Glu-Ala; 6:4) [GA 64]: the “Non-Canonical Peptide Non-Reactivity” value is “GA 64” with Donor 4 COP T-Cell Lines (205-1F4); “GA 64” in the assay on Donor 4 COP T-Cell Lines (205-1H3); “GA64” in the assay on Donor 3 COP T-Cell Lines (165-C4C); “GA 64” in the assay with Donor 3 COP T-Cell Lines (165-F3C); “GA64” with Donor 3 COP T-Cell Lines (165-F6C). Also, the “Nonreactive T-Cell Line” value with Donor 4 COP T-Cell Lines (Donor 4 COP lines, stimulation with the non-canonical GA peptide) was 205-1F4 (Donor 4) and 205-1H3 (Donor 4); in the assay with Donor 3 COP T-Cell Lines (Donor 3 COP lines, stimulation with the non-canonical GA peptide), 165-C4C (Donor 3) and 165-F3C (Donor 3) and 165-F6C (Donor 3). Also, the “Proliferation (luminescent ATP assay), Mean” value in the assay on Donor 4 COP T-Cell Lines (1 μg/mL antigen) is listed as 2544; with Donor 4 COP T-Cell Lines (3 μg/mL antigen), 2261; in the assay with Donor 4 COP T-Cell Lines (10 μg/mL antigen), 2080; in the assay on Donor 3 COP T-Cell Lines (T-cell line 165-C4C, 1 μg/mL antigen, Day 66 of culture, 0 μg/mL 1881), 2205; in the assay on Donor 3 COP T-Cell Lines (T-cell line 165-C4C, 3 μg/mL antigen, Day 66 of culture, 0 μg/mL 1881) it was 2229; in the assay on Donor 3 COP T-Cell Lines (T-cell line 165-C4C, 10 μg/mL antigen, Day 66 of culture, 0 μg/mL 1881), 2244. Besides, the “Proliferation (luminescent ATP assay), Mean” value in the assay on Donor 3 COP T-Cell Lines (T-cell line 165-F3C, 1 μg/mL antigen, Day 77 of culture, 0 μg/mL 1563) is recorded as 1791; in the assay with Donor 3 COP T-Cell Lines (T-cell line 165-F3C, 3 μg/mL antigen, Day 77 of culture, 0 μg/mL 1563), 1943; in the assay on Donor 3 COP T-Cell Lines (T-cell line 165-F3C, 10 μg/mL antigen, Day 77 of culture, 0 μg/mL 1563), 1870. Further, the “Reactivity (proliferation), Mean” value in the assay with Donor 4 COP T-Cell Lines (1 μg/mL antigen) is recorded as 4012.0; with Donor 4 COP T-Cell Lines (3 μg/mL antigen), 4246.0; in the assay on Donor 4 COP T-Cell Lines (10 μg/mL antigen) it was 2054.3.
